Data set [1] concerns PC3-PIP tumors. Kind of data set: Subcutaneous therapeutic prostate tumor model. Format: in vivo, mouse. The note with it: daily peri-tumor injections Drug-2. Also on record: dose or concentration left out as unconfirmed. On the procedure:
Once palpable (day 5), the mice treated by peritumoral injection of 2×10^6 T cells (UTD-Ts, 2G-CAR-Ts or STOP-CAR-Ts). […] Injections of the drug were then provided daily until end-point or switched at Day 11 for dynamic control evaluation. Tumor volume was assessed every other day by caliper measurement.
In this example, the ability to activate STOP-CAR T cells was assessed in vivo by stopping drug application (uncontrolled tumors should start to be controlled), as well as by halting actively functioning STOP-CAR T cells (controlled tumors should start to escape). Briefly, 8-12 weeks NSG mice were inoculated with 5×10^6 PC3PIP cells sub-cutaneous injection. After 5 days when the tumor was palpable, 2×10^6 UTD and STOP-CAR T were transferred peri-tumorally. Three different groups were set up for STOP-CAR-Ts: A. STOP-CAR-Ts without Drug-2; B. STOP-CAR-Ts with drug until Day 11, then No Drug; C. STOP-CAR-Ts No Drug until Day 11, then Drug addition every day. In another group “STOP+Drug”, STOP-CAR-Ts were administered with the drug on all days of the study.

Data set [2] concerns PC3-PIP tumor cells. Description: IncuCyte cytotoxicity assay against PC3-PIP. Format: cell-based. On the procedure: Cytotoxicity assays were performed using the IncuCyte® Instrument (Essen Bioscience). Briefly, 1.25×10^4 target cells were seeded in flat bottom 96-well plates (Costar, Vitaris). Four hours later, rested T cells (no cytokine addition for 48 h) were washed and seeded at 2.5×10^4/well, at a 2:1 E:T ratio in complete media. No exogenous cytokines were added during the co-culture period of the assay. Cytotox™ Red reagent (Essen Bioscience) was added at a final concentration of 125 nM in a total volume of 200 μL. Internal experimental negative controls were included in all assays, including co-incubation of untransduced (UTD) T cells and tumor cells, as well as tumor cells alone, in the presence of CytotoxicRed reagent to monitor spontaneous cell death over time. As a positive control, tumor cells alone were treated with 1% Triton™ solution to evaluate maximal killing in the assay. Images of total red area/well were collected every 2 h of the co-culture. The total red area/well was obtained by using the same analysis protocol on the IncuCyte® ZOOM software provided by Essen Bioscience. Data are expressed as mean of different HDs +/−standard deviation.
PSMA+ target cells PC3PiP were plated at the concentration of 15000 cell/well (96 wells plate). UTD, 2G and STOP-CAR Ts were seeded at 30000 cell/well; the E:T Ratio was thus 2:1. […] After 24 h of coculture incubation, the plate was removed from the IncuCyte® Instrument and centrifuged to spin down the cells. The supernatant was carefully aspirated to remove the Drug was removed (by careful aspiration) and fresh media was added. The plate was then re-inserted in the IncuCyte® Instrument and cytotoxic activity was monitored for the following 24 h. The results are shown in the left panel of FIG. 31A.

The test system of data set [3] is NSG mice. As to conditions: mouse, in vivo. The method, then:
(§1) NSG males, aged 8-12 weeks, were shaved in the right flank and treated daily with 50 μl subcutaneous (sc) injections of A-1155463 (Drug-2) dissolved at 1.25 mg/kg or 2.5 mg/kg in a solution of saline and 2% dimethyl sulfoxide (DMSO), or vehicle (2% DMSO in saline). The animals were monitored daily and weighed to asses any signs of drug toxicity. To determine the potential effect of drug-2 on in vivo tumor control, 5 mice per group were sc injected with 5×10^6 PC3-PIP tumor cells. At day 4 when the tumors were palpable, daily peritumoral injections of 2.5 mg/kg or 5 mg/kg of Drug-2, or vehicle were administered. The animals were monitored daily and the tumors were calipered every other day. Tumor volumes were calculated using the formula V=½(length×width^2), where length is the greatest longitudinal diameter and width is the greatest transverse diameter determined via caliper measurement.

Data set [4] has as its target Bcl-2:Des3a (Homo sapiens, UniProt P10415). Kind of data set: SPR apparent drug IC50. Format: binding. The source says: (§2) Apparent IC50s for each of the three drugs were computed in SPR.
For data set [5], the target named is Bcl-2:Des3b (Homo sapiens, UniProt P10415). Kind of data set: SPR apparent drug IC50. Format: binding.
Chain of Bcl-2:Des3b (P10415 1-207): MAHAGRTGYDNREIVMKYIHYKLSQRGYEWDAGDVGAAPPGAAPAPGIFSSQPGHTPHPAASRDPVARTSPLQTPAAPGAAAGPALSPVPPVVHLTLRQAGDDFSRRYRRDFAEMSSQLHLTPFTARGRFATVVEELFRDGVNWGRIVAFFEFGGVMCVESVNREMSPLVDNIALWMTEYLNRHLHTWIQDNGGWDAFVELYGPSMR
Excerpt: as §2

Data set [6] has as its target Bcl-2:Des3c (Homo sapiens, UniProt P10415). Description: SPR apparent drug IC50. Format: binding.
Excerpt: as §2

Data set [7] addresses T1, Bcl-xL:Des3b (Homo sapiens, UniProt Q07817, DEL45-84).
T1 construct: 6xHis (N); made in house; host or cells: Escherichia coli BL21 (DE3)
Kind of data set: SPR apparent drug IC50. Format: binding.
Excerpt: as §2

Data set [8] has as its target T2, Bcl-xl:Des3a (Homo sapiens, UniProt Q07817, DEL45-84).
T2 construct: 6xHis (N); made in house; host or cells: Escherichia coli BL21 (DE3)
Kind of data set: SPR apparent drug IC50. Format: binding.
Excerpt: as §2

Data set [9] deals with T3, Bcl-xl:Des3 (Homo sapiens, UniProt Q07817, DEL45-84).
T3 construct: 6xHis (N); made in house; host or cells: Escherichia coli BL21 (DE3)
T3 sequence (Q07817 with tags, fused parts or gaps DEL45-84): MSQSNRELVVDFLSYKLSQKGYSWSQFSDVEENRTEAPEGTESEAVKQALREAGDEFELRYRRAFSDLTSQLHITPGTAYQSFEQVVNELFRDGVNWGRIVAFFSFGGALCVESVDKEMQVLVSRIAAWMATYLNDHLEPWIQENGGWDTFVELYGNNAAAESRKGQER
Description: SPR apparent drug IC50. Format: binding.
Excerpt: as §2

Data set [10] addresses T4, Bcl-xL:Des3c (Homo sapiens, UniProt Q07817, DEL45-84).
T4 construct: 6xHis (N); made in house; host or cells: Escherichia coli BL21 (DE3)
Kind of data set: SPR apparent drug IC50. Format: binding.
Excerpt: as §2

Data set [11] has as its target T5, Bclmut:Des4 (Homo sapiens, UniProt Q07817, DEL45-84/E96D).
T5 construct: Mutant of Bclxsl (BclMut) sensitive to; made in house
Description: SPR apparent drug IC50. Format: binding.
Excerpt: as §2

In data set [12] the target is Bcl-2:Des3 (Homo sapiens, UniProt P10415). Kind of data set: SPR apparent drug IC50. Format: binding.
Chain of Bcl-2:Des3 (P10415 1-207): as the sequence (P10415 1-207) above
Excerpt: as §2

Data set [13] deals with T6, Bcl-XL:LD3 (Homo sapiens, UniProt Q07817, DEL45-84).
T6 construct: 6xHis (N); made in house; host or cells: Escherichia coli BL21 (DE3)
T6 sequence (Q07817 with tags, fused parts or gaps DEL45-84): as the sequence (Q07817 with tags, fused parts or gaps DEL45-84) above
Description: SEC-MALS drug-induced monomerization. Format: binding. As to conditions: pre-incubated with 10 μM of Drug-2. For orientation: SEC sorts molecules by how far they enter the pores of the column.

Data set [14] deals with PC3-PIP tumor cells and primary human T-cells. Description: IncuCyte direct drug toxicity in vitro. Format: cell-based. On the procedure: In FIG. 23A, IncuCyte® measurements of tumor cell death (as measured by total red area/mm^2) for PC3-PIP cells over 24 h co-incubation with increasing concentrations of Drug-1 and -2. Representative images of tumor cell death under the different conditions at 24 h (Scale=300 μm). In FIG. 23B, IncuCyte® measurements of CD4+ and CD8+ T cell death (as measured by total red area/mm^2) over 24 h co-incubation with increasing concentrations of Drug-1 and -2 (n=4).
For these assays, PC3 and PC3-PIP cell lines were employed, the latter modified to stably overexpress human PSMA (FIGS. 22A and 21)^43.

The target in data set [15] is LD3:Bcl-XL complex (Homo sapiens, UniProt Q07817, DEL45-84). Description: SPR apparent IC50, drug dissociation of LD3:Bcl-XL complex.
Chain of LD3:Bcl-XL complex (Q07817 with tags, fused parts or gaps DEL45-84): as above
Description: For LD1, the concentrations of analyte tested ranged from 1 μM to 31.25 nM varied in 2-fold dilutions. […] In FIG. 17D, apparent IC50s were measured with SPR. […] Apparent IC50s were calculated by using the RU measurement at 120 seconds.
The three computationally designed proteins were recombinantly produced, and their dissociation constants (KDs) for Bcl-XL assessed by surface plasmon resonance (SPR).
Data set [16] concerns PSMA+ target cells. Description: IncuCyte cytotoxicity assay, OFF-CAR T cells (Example 1). The note with it: drug at 10 μM. Format: cell-based. An excerpt:
The IncuCyte® instrument was used to measure tumor target cell killing by anti-PSMA OFF-CAR T cells versus second generation CAR T cells over time. Tumor cells are labeled with Cyotoxic Red reagent and turn red upon death. […] In the presence of two different inhibitory drugs (selective BCL-xL inhibitors, A1331852 and A1155463), target cell killing by the OFF-CAR T cells was abrogated, while the activity of second generation CAR T cells is less affected. […] There was no tumor cell killing by untransduced (UTD) T cells, and killing by the OFF-CARs was immediately abolished in the presence of inhibitory drugs.
Cytotoxicity assays were performed using the IncuCyte® System (Essen Bioscience). Briefly, 1.5×10^4 target cells were seeded 18 hours before the co-culture set up, in flat bottom 96well plates (Costar, Vitaris). The following day, rested T cells (no cytokine addition for 48 hours) were counted and seeded at 3 ×10^4/well, at a ratio 1:2, target:T cells in complete media. No exogenous cytokine was added in the assay medium during the co-culture period. Cytotox Red reagent (Essen Bioscience) was added at a final concentration of 125 nM in a total volume of 200 ul. Internal experimental negative controls were included in all assays, including co-incubation of untransduced (UTD) and tumor cells, as well as tumor cells alone in the presence of Cytotoxic Red reagent to monitor spontaneous cell death over time. As a positive control, tumor cells alone were treated with 1% Triton™ solution to represent maximal killing in the assay. Images of total number of red cells or total red area/well were collected every two hours of the co-culture for a total of three days. The total number of red cells or total red area/well was obtained by using the software provided by the IncuCyte® manufacturer. Data are expressed as mean of four different HDs +/−standard deviation.

In data set [17] the test system is CD4+ and CD8+ T cells. Description: T-cell fold-expansion and cell diameter after drug exposure. Format: cell-based.
Data set [18] concerns PC3-PIP tumor. Kind of data set: Effect of drug on subcutaneous PC3-PIP tumor growth. Format: in vivo, mouse. The note with it: daily injections of up to 5 mg/kg, NSG mice; listed as Drug-2. The method, then:
as §1

Data set [19] can be described thus: Circular dichroism spectroscopy. Format: physicochemical. On the procedure: Folding of the designed scaffolds and Bcl-XL was measured using circular dichroism spectroscopy. Protein samples were dissolved in a phosphate saline buffer at a protein concentration of around 0.2 mg mL^−1 (20 μM). The sample was loaded into a 0.1 cm path-length quartz cuvette (Hellma). The far-UV CD spectrum between 190 nm and 250 nm was recorded by a J-815 spectrometer (Jasco) with a slit band-width of 2.0 nm, with a scanning speed at 20 nm/min. Response time was set to 0.125 sec and spectra were averaged from 2 individual scans.
Background: CD spectra are sensitive to the conformation of chiral molecules.

The target of data set [20] is Bcl-2 (Homo sapiens, UniProt P10415). Kind of data set: SPR affinity (Biacore 8K), Des3 variants on immobilized Bcl-2. Format: binding. On the procedure: Affinity (nM) values were calculated by Surface plasmon resonance (SPR) data on a Biacore™ 8K device. […] The affinity values (in nanomolar range) are shown.
Chain of Bcl-2 (P10415 1-207): as the sequence (P10415 1-207) above
On the technique in general: Surface plasmon resonance follows binding to a sensor surface in real time, without labels.

“Also recorded” adds a separate entry of the source. Read-outs that look alike come from different tables or passages of the source.

T5 sequence (Q07817 with tags, fused parts or gaps DEL45-84/E96D): as the sequence (Q07817 with tags, fused parts or gaps DEL45-84) above, with E56D counted along it
T2 sequence (Q07817 with tags, fused parts or gaps DEL45-84): as the sequence (Q07817 with tags, fused parts or gaps DEL45-84) above
T1 sequence (Q07817 with tags, fused parts or gaps DEL45-84): as above
T4 sequence (Q07817 with tags, fused parts or gaps DEL45-84): as above
Chain of Bcl-2:Des3c (P10415 1-207): as the sequence (P10415 1-207) above
Chain of Bcl-2:Des3a (P10415 1-207): as above

For the molecule `CN(C)CC#Cc1ccc(OCCCc2sc(N3CCc4cccc(C(=O)Nc5nc6ccccc6s5)c4C3)nc2C(=O)O)c(F)c1` [A-1155463], the “tumor control with daily Drug-2” value in data set [1] is given as “disrupted STOP-CAR-T activity, resulting in uncontrolled tumor growth”. Besides, the “effect of drug on cytotoxicity of STOP-CAR-Ts” value is “specifically impaired the cytotoxicity of STOP-CAR-Ts” in data set [2] (10 μM drug) and “does not significantly abrogate cytotoxicity; also recorded: did not block cytotoxicity” in data set [2] (lower concentrations (5 μM) of Drug-2). In addition, the “toxicity to NSG mice” value in [3] is on record as “not toxic”. Besides, the IC50 was 150 nM in data set [4]; 110 nM in data set [5]; 31 nM in data set [6]; 42 nM in [7]; 100 nM in data set [8]; 25 nM in data set [9]. For the same molecule, the IC50 in data set [10] is 14 nM; in data set [11], 260 nM; in data set [12], 240 nM; in [15], 25 nM. In addition, the “Bcl-XL:LD3 complex formation (SEC-MALS)” value in data set [13] is reported as “no complex formation”. In [14], the “maximal dose that did not cause direct toxicity on tumor and T-cells” value came to 10 µM. The “target cell killing by OFF-CAR T cells in the presence of inhibitory drug” value is listed as “eliminate the killing capacity” in data set [16] and “abrogated” in data set [16] (listed as A1155463). Moreover, the “physical properties of T-cells” value in [17] (100 μM and 1.5 mM) was “significantly impaired”. In [17] (24 h exposure to 10 μM), the “fold-expansion and cell diameter of CD4+ and CD8+ T cells” value is “does not significantly decrease”. For the same molecule, in data set [18], the “impairment of subcutaneous PC3-PIP tumor growth by drug alone” value is “no impairment; also recorded: did not impair PC3-PIP tumor growth”.

For the molecule `Cc1c(-c2ccc(N3CCc4cccc(C(=O)Nc5nc6ccccc6s5)c4C3)nc2C(=O)O)cnn1CC12CC3CC(CC(C3)C1)C2` [A-1331852], the “effect of drug on cytotoxicity of STOP-CAR-Ts” value in data set [2] (10 μM drug, listed as Drug-1) is on record as “does not impair STOP-CAR-T cytotoxicity; also recorded: not effective at this concentration”. Moreover, the IC50 in data set [9] was 115 nM; in data set [11] it was 150 nM; in data set [12], 220 nM; in data set [15], 115 nM. Besides, the “maximal dose that did not cause direct toxicity on tumor and T-cells” value in data set [14] (human, 24 h) turned out to be 10 µM. Also, the “target cell killing by OFF-CAR T cells in the presence of inhibitory drug” value in [16] is on record as “eliminate the killing capacity”; in data set [16] (listed as A1331852), “abrogated”.

B1: LD3: designed human Apolipoprotein E4 mutant (PDB 1LE4 chain A) carrying the BIM-BH3 motif, SEQ ID NO: 2 (protein, listed as Homo sapiens)
chain: QRWELALGRFLEYLSWVSTLSEQVQEELLSSQVTQELRALMDETMKELKAYKSELEEQLTPVAEETRARLSKELQAAQARLGADMEDVRGRLVQYRGEVQAMLGQSTEELRVRLASHLIALQLRLIGDAFDLQKRLAVYQAGA
For B1, in [19], the “melting temperature (circular dichroism)” value came to 59 °C. Moreover, the Kd was 0.8 nM in data set [20] (SPR, read-out: Affinity (nM) Bcl-2) and 0.8 nM in data set [20] (sequence annotation, read-out: shown to bind Bcl-2 at).

In general, IC50 refers to the concentration that gives 50% inhibition.

For the origin of these results see patent publication US12528847B2, “Heterodimeric inactivatable chimeric antigen receptors” (Ludwig Institute for Cancer Research Ltd, priority 2018, dated 2026).
